Test results taken from patent US20250368678A1, “19-NOR-C3,3-DISUBSTITUTED C21-AZACYCLO-S[…] AND METHOD FOR USING SAME” (SHANDONG LUYE PHARMACEUTICAL CO., LTD., priority 2022, published 2025).

Tests used:
[1] = target: T1, α1β2γ2 GABA receptors (α1β2γ2-CHO-TRex stable cell strain) (Homo sapiens, UniProt P14867+P47870); assay: Whole-cell patch clamp, intrasynaptic functional activity (positive allosteric regulation of GABA-induced current); format: cell-based; conditions: patch clamp -60 mV, GABA at EC10-20, α1β2γ2-CHO-TRex cells
T1 construct: expressed in transfected cells
Description: (§1) The α4β3δ-HEK-FlpIn-TRex stable cell strain was cultured in DMEM+10% FBS complete culture medium, with the selective antibiotics being 10 μg/mL Blasticidin, 100 µg/mL Zeocin, 100 µg/mL Hygromycin, and 0.2 μg/mL Puromycin. The α1β2γ2-CHO-TRex stable cell strain was cultured in DMEM/F12+10% FBS complete culture medium, with the selective antibiotics being 10 μg/mL Blasticidin, 100 μg/mL Zeocin, 300 μg/mL Hygromycin, and […] Puromycin.
(§2) The day before the patch clamp experiment, cells were seeded onto 12 mm polylysine-coated coverslips and then cultured in 35 mm culture dishes, and tetracycline ([…]) was added to induce the expression of GABA receptors. The extracellular fluid had the following composition (in mM): 140 NaCl, 3 KCl, 1.5 MgCl2, 2 CaCl2, 10 HEPES, and 10 Glucose. After thorough mixing, NaOH was added to adjust the pH to 7.4, and sucrose was added to adjust the osmotic pressure to 300-320 mOsm. The fluid was stored at 4° C. The electrode internal solution had the following composition (in mM): 145 KCl, 1 MgCl2, 5 EGTA, 10 HEPES, and 5 MgATP. After thorough mixing, KOH was added to adjust the pH to 7.3, and sucrose was added to adjust the osmotic pressure to 290-300 mOsm. The solution was filtered through a […] before use.
(§3) Whole-cell patch clamp recording was mainly employed in this experiment. The membrane potential was clamped at −60 mV, and receptors were activated using GABA at an EC10-20 concentration ([…]). The test compounds were dissolved in 0.1% DMSO, and perfusion was performed for 30 s prior to GABA stimulation. Finally, the positive allosteric regulating effects of the test compounds on α1β2γ2 or α4β3δ were determined.
(§4) The experimental result for each concentration was expressed as a fold increase in the GABA-induced current caused by the compound. […] At least 5 concentrations are tested to obtain a complete EC50 curve and EC50 values. All experiments were repeated on no less than 3 cells, and data processing was completed using GraphPad prism software. The dose-response curves were fitted using the Hill equation, and the half-maximal activating concentration EC50 and Emax were finally obtained.

[2] = target: T2, α4β3δ GABA receptors (α4β3δ-HEK-FlpIn-TRex stable cell strain) (Homo sapiens, UniProt P28472+P48169); assay: Whole-cell patch clamp, extrasynaptic functional activity (positive allosteric regulation of GABA-induced current); format: cell-based; conditions: patch clamp -60 mV, GABA at EC10-20, α4β3δ-HEK-FlpIn-TRex cells
T2 construct: expressed in transfected cells
Description: as §1, §2, §3, §4

[3] = In vitro liver microsomal stability assay, rat; format: in vitro ADME; conditions: for CLint scaled at 1 µM / half-life at 1 µM / microsomal CLint at 1 µM / T1/2: Rat liver microsomes; for Remaining amount % at 60 min: Rat liver microsomes 0.5 mg/mL, NADPH; for microsomal CLint at 1 µM: read-out: CLint(mic)
Description: (§5) 1) Preparation of working solutions of test samples: The test samples were diluted with acetonitrile to 100 M.
(§6) 2) Preparation of a working solution of liver microsomes: liver microsomes were diluted with 100 mM phosphate-buffered saline to 0.56 mg/mL.
(§7) 3) Preparation of a working solution of reduced nicotinamide adenine dinucleotide (NADPH): A proper amount of NADPH was weighed out and diluted with phosphate-buffered saline to 20 mM, and an equal volume of a 60 mM MgCl2 solution was added.
(§8) 4) Preparation of a stop solution: Tolbutamide was diluted with acetonitrile to 20 ng/mL, serving as a stop solution containing an internal standard.
(§9) 1) Incubation anti-adsorption EP tubes were prepared and labeled with species, test/control sample, time points (0, 5, 10, 20, 30, 60 min, Blank60, and NCF60), etc.
(§10) 2) 2 L of test or control sample working solution, diluted with acetonitrile to 100 M, and 178 L of liver microsome working solution were added to each tube. For the Blank60 tube, 2 L of acetonitrile was added instead of a test sample. The tubes were pre-incubated in a 37° C. water bath for about 10 min, with each sample tested in triplicate.
(§11) 3) After the pre-incubation was complete, 20 L of NADPH working solution was added to each tube except for the 0 min and NCF60 tubes to start reactions, and 20 L of phosphate-buffered saline (containing 30 mM MgCl2) was added to the NCF60 tube. In the incubation system, the final concentrations of the test and control samples were 1 M, the final concentration of liver microsomes was 0.5 mg/mL, the final concentration of NADPH was 1 mM, and the final concentration of MgCl2 was 3 mM.
(§12) 4) For the 0 min sample, 600 L of stop solution was added before adding the NADPH working solution. After each sample was incubated for its respective time, 600 L of stop solution was added to stop the reaction.
(§13) 5) After the reaction was stopped, each sample was vortexed for 30 s and then centrifuged at 13,500 rpm for 10 min. 100 L of the supernatant was transferred to an EP tube, and 100 L Milli-Q water was added. The mixture was well mixed by vortexing and analyzed by LC-MS/MS.
(§14) 6) Testosterone and dextromethorphan were used as positive control samples under the same conditions to assess the stability and reliability of the system.
(§15) Parameters of the test samples, including their half-lives, intrinsic clearance rates in liver microsomes, and hepatic intrinsic clearance rates, were calculated based on the percentage of test sample remaining.

[4] = In vitro liver microsomal stability assay, human; format: in vitro ADME; conditions: for CLint scaled at 1 µM / half-life at 1 µM / microsomal CLint at 1 µM / T1/2: Human liver microsomes; for Remaining amount % at 60 min: Human liver microsomes 0.5 mg/mL, NADPH; for microsomal CLint at 1 µM: read-out: CLint(mic)
Description: as §5, §6, §7, §8, §9, §10, §11, §12, §13, §14, §15

T2 sequence (P48169 36-554): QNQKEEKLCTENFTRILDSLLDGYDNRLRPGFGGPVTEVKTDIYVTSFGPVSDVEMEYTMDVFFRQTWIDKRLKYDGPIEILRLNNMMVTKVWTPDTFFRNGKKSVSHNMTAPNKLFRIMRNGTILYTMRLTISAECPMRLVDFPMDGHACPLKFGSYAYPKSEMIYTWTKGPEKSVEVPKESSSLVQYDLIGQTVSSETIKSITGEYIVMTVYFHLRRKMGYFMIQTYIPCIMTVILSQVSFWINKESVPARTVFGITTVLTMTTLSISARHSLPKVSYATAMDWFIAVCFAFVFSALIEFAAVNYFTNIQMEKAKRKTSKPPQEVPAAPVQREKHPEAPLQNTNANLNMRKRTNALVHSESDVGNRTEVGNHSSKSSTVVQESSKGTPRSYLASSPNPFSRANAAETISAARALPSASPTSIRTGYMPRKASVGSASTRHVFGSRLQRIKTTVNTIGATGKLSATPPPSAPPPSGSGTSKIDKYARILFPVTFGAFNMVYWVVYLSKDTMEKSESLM
T2 sequence (P28472 26-473): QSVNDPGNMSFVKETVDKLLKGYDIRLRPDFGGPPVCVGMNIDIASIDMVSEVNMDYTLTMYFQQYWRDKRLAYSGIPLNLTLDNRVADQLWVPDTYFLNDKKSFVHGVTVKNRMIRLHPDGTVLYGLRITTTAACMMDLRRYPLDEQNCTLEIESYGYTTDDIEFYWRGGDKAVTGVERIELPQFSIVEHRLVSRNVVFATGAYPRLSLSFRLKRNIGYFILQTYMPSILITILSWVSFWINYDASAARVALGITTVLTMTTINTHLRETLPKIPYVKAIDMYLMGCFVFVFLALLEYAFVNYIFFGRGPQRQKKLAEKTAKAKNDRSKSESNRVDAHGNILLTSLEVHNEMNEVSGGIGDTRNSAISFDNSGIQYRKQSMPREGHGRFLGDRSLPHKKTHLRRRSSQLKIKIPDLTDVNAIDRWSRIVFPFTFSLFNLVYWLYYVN
T2 sequence (O14764 25-452 partner): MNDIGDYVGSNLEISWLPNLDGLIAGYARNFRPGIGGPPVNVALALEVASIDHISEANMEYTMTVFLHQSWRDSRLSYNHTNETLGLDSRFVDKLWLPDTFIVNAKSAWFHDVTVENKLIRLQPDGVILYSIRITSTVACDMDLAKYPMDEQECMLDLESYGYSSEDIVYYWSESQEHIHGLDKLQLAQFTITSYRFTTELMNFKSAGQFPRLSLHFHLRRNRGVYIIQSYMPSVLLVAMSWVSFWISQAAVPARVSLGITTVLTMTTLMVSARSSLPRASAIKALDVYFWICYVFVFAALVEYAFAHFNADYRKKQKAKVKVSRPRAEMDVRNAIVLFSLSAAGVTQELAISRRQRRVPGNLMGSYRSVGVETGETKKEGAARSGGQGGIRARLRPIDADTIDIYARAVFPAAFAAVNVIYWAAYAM
T1 sequence (P14867 28-456): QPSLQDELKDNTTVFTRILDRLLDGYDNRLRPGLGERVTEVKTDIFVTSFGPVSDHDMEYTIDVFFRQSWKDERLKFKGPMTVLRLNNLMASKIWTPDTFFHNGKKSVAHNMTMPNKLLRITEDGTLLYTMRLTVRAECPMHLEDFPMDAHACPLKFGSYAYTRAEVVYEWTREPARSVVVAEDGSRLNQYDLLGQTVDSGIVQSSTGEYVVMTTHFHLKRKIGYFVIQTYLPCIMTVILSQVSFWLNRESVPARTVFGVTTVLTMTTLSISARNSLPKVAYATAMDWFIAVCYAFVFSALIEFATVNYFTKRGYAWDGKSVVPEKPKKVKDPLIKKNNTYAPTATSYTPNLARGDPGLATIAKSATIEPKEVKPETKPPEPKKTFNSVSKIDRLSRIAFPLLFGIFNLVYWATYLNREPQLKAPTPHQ
T1 sequence (P47870 25-512 limits assumed): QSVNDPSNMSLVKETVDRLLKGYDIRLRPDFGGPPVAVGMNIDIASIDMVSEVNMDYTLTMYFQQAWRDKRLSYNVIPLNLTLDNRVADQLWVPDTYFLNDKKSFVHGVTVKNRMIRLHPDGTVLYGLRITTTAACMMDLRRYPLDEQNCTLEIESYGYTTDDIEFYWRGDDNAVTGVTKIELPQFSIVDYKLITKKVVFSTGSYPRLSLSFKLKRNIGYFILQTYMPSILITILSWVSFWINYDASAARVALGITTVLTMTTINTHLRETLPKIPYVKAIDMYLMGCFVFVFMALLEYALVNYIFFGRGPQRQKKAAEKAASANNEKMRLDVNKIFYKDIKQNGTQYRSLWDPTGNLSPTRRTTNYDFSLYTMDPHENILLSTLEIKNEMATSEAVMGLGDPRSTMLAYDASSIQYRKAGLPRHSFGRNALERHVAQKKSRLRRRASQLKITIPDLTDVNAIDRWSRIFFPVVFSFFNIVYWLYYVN
T1 sequence (P18507 40-475 partner): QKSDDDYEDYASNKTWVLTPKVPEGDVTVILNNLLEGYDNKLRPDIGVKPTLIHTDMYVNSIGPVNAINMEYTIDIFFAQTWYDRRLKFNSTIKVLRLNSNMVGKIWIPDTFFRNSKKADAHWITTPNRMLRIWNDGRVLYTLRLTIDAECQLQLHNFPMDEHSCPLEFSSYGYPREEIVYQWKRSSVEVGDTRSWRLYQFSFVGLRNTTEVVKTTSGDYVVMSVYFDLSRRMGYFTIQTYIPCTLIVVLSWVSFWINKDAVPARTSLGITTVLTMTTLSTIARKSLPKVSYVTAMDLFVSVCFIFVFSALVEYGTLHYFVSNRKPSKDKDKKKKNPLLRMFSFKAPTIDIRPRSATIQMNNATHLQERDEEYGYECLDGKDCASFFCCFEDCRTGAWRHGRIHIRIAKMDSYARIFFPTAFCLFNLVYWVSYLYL

Compound | EC50 [1] | Emax [1] | EC50 [2] | Emax [2] | CLint scaled at 1 µM [3] | half-life at 1 µM [3] | Remaining amount % at 60 min [3] | microsomal CLint at 1 µM [3] | CLint scaled at 1 µM [4] | half-life at 1 µM [4] | Remaining amount % at 60 min [4] | microsomal CLint at 1 µM [4] | T1/2 [3] | T1/2 [4]
C[C@@]1(O)CC[C@H]2[C@H](CC[C@@H]3[C@@H]2CC[C@]2(C)[C@@H](C(=O)Cn4cnn(-c5cccc(F)c5)c4=O)CC[C@@H]32)C1 [Compound 1] | 0.056 µM | 566% | 0.01 µM | 440% | 43.6 mL/min/kg | 57.3 min | 44.5% | 24.2 µL/min/mg | 3.97 mL/min/kg | 330 min | 89.0% | 4.2 µL/min/mg | – | –
C[C@@]1(O)CC[C@H]2[C@H](CC[C@@H]3[C@@H]2CC[C@]2(C)[C@@H](C(=O)Cn4cnn(-c5cccnc5)c4=O)CC[C@@H]32)C1 [Compound 2] | – | 773% | – | 391% | 187 mL/min/kg | – | 11.25% | 104 µL/min/mg | 52 mL/min/kg | – | 18.57% | 57 µL/min/mg | 11.3 min | 24.1 min
C[C@@]1(O)CC[C@H]2[C@H](CC[C@@H]3[C@@H]2CC[C@]2(C)[C@@H](C(=O)Cn4cnn(-c5ccccc5)c4=O)CC[C@@H]32)C1 [Compound 3] | 0.09 µM | 430% | 0.029 µM | 490% | 94 mL/min/kg | 26.5 min | 51.77% | 52 µL/min/mg | 11 mL/min/kg | 118 min | 70.25% | 12 µL/min/mg | – | –
C[C@@]1(O)CC[C@H]2[C@H](CC[C@@H]3[C@@H]2CC[C@]2(C)[C@@H](C(=O)Cn4cnn(-c5ccc(F)cc5)c4=O)CC[C@@H]32)C1 [Compound 4] | 0.22 µM | 390% | 0.17 µM | 410% | 93 mL/min/kg | 27 min | 37.09% | 51 µL/min/mg | 13 mL/min/kg | 96.3 min | 64.0% | 14 µL/min/mg | – | –
COc1cccc(-n2ncn(CC(=O)[C@H]3CC[C@H]4[C@@H]5CC[C@@H]6C[C@](C)(O)CC[C@@H]6[C@H]5CC[C@]34C)c2=O)c1 [Compound 5] | 0.026 µM | 410% | 0.021 µM | 570% | 176 mL/min/kg | 14.1 min | 14.19% | 98 µL/min/mg | 24 mL/min/kg | 52.5 min | 43.53% | 26 µL/min/mg | – | –
Cn1ncn(CC(=O)[C@H]2CC[C@H]3[C@@H]4CC[C@@H]5C[C@](C)(O)CC[C@@H]5[C@H]4CC[C@]23C)c1=O [Compound 6] | 0.444 µM | 242% | 0.305 µM | 497% | 117 mL/min/kg | 21.3 min | 15.45% | 65 µL/min/mg | 10 mL/min/kg | 126 min | 72.92% | 11 µL/min/mg | – | –
C[C@@]1(O)CC[C@H]2[C@H](CC[C@@H]3[C@@H]2CC[C@]2(C)[C@@H](C(=O)Cn4ncn(-c5ccc(F)cc5)c4=O)CC[C@@H]32)C1 [Compound 9] | 0.0124 µM | 294% | 0.148 µM | 428% | 239 mL/min/kg | – | 4.19% | 133 µL/min/mg | 38 mL/min/kg | – | 24.73% | 42 µL/min/mg | 10.3 min | 32.8 min
C[C@@]1(O)CC[C@H]2[C@H](CC[C@@H]3[C@@H]2CC[C@]2(C)[C@@H](C(=O)Cn4ccn(-c5cccc(F)c5)c4=O)CC[C@@H]32)C1 [Compound 11] | 0.241 µM | 594% | 0.139 µM | 552% | 276 mL/min/kg | 9 min | 9.24% | 153 µL/min/mg | 63 mL/min/kg | 19.8 min | 28.02% | 70 µL/min/mg | – | –
C[C@@]1(O)CC[C@H]2[C@H](CC[C@@H]3[C@@H]2CC[C@]2(C)[C@@H](C(=O)Cn4c(=O)n(-c5ccccc5)c5ccccc54)CC[C@@H]32)C1 [Compound 13] | – | 305% | – | 470% | – | – | – | – | – | – | – | – | – | –
COc1ccc(-n2ncn(CC(=O)[C@H]3CC[C@H]4[C@@H]5CC[C@@H]6C[C@](C)(O)CC[C@@H]6[C@H]5CC[C@]34C)c2=O)cn1 [Compound 17] | – | 389% | – | 474% | 161 mL/min/kg | – | 6.6% | 90 µL/min/mg | 17 mL/min/kg | – | 57.7% | 19 µL/min/mg | 15.5 min | 72.9 min
C[C@@]1(O)CC[C@H]2[C@H](CC[C@@H]3[C@@H]2CC[C@]2(C)[C@@H](C(=O)Cn4cnn(-c5ccccc5F)c4=O)CC[C@@H]32)C1 [Compound 18] | 0.171 µM | 710% | 0.107 µM | 541% | 278 mL/min/kg | 9 min | 9.7% | 154 µL/min/mg | 30 mL/min/kg | 41.7 min | 38.3% | 33 µL/min/mg | – | –
C[C@@]1(O)CC[C@H]2[C@H](CC[C@@H]3[C@@H]2CC[C@]2(C)[C@@H](C(=O)Cn4cnn(-c5cc(F)ccn5)c4=O)CC[C@@H]32)C1 [Compound 35] | 0.34 µM | 446% | 0.068 µM | 720% | – | – | – | – | – | – | – | – | – | –
C[C@@]1(O)CC[C@H]2[C@H](CC[C@@H]3[C@@H]2CC[C@]2(C)[C@@H](C(=O)Cn4cnn(-c5ccnc(C(F)F)c5)c4=O)CC[C@@H]32)C1 [Compound 37] | – | 600% | – | 432% | – | – | – | – | – | – | – | – | – | –
Cc1cc(-n2ncn(CC(=O)[C@H]3CC[C@H]4[C@@H]5CC[C@@H]6C[C@](C)(O)CC[C@@H]6[C@H]5CC[C@]34C)c2=O)cc(C)n1 [Compound 40] | – | 691% | – | 563% | – | – | – | – | – | – | – | – | – | –
C[C@@]1(O)CC[C@@]2(C)[C@@H](CC[C@@H]3[C@@H]2CC[C@]2(C)[C@@H](C(=O)Cn4cnn(-c5ccnc(F)c5)c4=O)CC[C@@H]32)C1 [Compound 42] | 0.28 µM | 736% | 0.143 µM | 507% | – | – | – | – | – | – | – | – | – | –
